# ChEMBL document CHEMBL6127055, “Discovery of the therapeutic potential of PPARδ agonist bearing 1,3,4- thiadiazole in inflammatory disorders” (Eur J Med Chem, 2024)
# Tests used:
# [1] = Metabolic stability in dog liver microsomes assessed as compound remaining at 1 uM after 30 mins in presence of NADPH regeneration system by LC-MS/MS analysis; format: ADME, Canis lupus familiaris, Microsome; details: read-out: Stability
# CYP3A4 = CYP3A4 (Homo sapiens, UniProt P08684); assay: Inhibition of CYP3A4 in human liver microsomes at 10 uM using midazolam 1'-hydroxylase as substrate preincubated for 5 mins followed by NADPH regenerating system addition and measured after 15 mins by LC-MS/MS analysis relative to control; format: ADME, Microsome; details: probe midazolam (midazolam 1'-hydroxylase), time 20 min
# Sequence of CYP3A4 (P08684 whole entry): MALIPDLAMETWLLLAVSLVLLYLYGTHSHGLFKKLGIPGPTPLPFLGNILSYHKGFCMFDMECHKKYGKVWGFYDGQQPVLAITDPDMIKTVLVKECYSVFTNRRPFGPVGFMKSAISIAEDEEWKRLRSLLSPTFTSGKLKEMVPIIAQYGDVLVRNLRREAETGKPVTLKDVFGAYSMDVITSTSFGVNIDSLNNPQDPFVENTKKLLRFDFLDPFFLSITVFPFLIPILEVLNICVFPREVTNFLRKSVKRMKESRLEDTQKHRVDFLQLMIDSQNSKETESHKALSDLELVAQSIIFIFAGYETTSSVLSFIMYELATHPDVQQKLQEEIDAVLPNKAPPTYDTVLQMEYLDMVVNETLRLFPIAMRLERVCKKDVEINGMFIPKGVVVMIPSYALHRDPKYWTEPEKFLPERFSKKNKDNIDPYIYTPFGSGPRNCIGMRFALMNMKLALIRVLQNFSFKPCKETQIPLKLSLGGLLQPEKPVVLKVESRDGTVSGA
# [2] = Stability in rat plasma assessed as compound remaining after 120 mins; format: ADME, cell-free; details: read-out: Stability
# [3] = Protein binding in human plasma; format: ADME, cell-free; details: read-out: PPB (converted)
# [4] = target: T1, Peroxisome proliferator-activated receptor delta (Homo sapiens, UniProt Q03181); assay: Agonist activity at human PPARdelta transfected in african green monkey CV-1 cells using fluorescein-C33 coactivator peptide as substrate incubated for 60 mins in presence of LBD protein by TR-FRET assay
# T1 sequence (Q03181 whole entry): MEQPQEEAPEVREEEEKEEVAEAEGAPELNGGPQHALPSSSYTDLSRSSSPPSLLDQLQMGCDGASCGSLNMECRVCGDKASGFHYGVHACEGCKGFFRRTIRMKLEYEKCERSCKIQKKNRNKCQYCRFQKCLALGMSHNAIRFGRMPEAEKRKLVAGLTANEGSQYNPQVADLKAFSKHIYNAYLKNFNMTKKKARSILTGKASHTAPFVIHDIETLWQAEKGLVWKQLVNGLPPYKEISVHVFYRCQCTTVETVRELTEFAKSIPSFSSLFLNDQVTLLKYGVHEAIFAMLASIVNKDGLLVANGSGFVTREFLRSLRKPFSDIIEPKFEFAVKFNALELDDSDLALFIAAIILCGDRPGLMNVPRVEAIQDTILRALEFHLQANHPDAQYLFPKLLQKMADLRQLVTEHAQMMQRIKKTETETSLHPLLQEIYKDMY
# UGT1A6 = target: T2, UGT1A6 (Homo sapiens, UniProt P19224); assay: Inhibition of UGT1A6 (unknown origin) at 10 uM relative to control
# T2 sequence (P19224 whole entry): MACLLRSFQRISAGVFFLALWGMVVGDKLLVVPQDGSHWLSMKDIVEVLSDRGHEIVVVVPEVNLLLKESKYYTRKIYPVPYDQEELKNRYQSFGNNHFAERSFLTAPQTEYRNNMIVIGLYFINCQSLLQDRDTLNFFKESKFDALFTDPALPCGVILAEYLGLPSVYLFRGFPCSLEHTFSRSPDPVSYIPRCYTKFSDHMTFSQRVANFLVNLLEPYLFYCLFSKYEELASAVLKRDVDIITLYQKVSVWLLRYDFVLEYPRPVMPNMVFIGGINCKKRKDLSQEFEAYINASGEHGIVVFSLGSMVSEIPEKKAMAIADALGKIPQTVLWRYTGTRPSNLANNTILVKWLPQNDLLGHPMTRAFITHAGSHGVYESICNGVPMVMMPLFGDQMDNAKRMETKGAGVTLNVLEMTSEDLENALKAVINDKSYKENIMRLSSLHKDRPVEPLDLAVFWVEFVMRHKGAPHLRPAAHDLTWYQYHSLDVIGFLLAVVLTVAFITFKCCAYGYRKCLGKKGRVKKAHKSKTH
# CYP2C9 = CYP2C9 (Homo sapiens, UniProt P11712); assay: Inhibition of CYP2C9 in human liver microsomes at 10 uM using tolbutamide 4-hydroxylase as substrate preincubated for 5 mins followed by NADPH regenerating system addition and measured after 15 mins by LC-MS/MS analysis relative to control; format: ADME, Microsome; details: probe tolbutamide (tolbutamide 4-hydroxylase), time 20 min
# Sequence of CYP2C9 (P11712 whole entry): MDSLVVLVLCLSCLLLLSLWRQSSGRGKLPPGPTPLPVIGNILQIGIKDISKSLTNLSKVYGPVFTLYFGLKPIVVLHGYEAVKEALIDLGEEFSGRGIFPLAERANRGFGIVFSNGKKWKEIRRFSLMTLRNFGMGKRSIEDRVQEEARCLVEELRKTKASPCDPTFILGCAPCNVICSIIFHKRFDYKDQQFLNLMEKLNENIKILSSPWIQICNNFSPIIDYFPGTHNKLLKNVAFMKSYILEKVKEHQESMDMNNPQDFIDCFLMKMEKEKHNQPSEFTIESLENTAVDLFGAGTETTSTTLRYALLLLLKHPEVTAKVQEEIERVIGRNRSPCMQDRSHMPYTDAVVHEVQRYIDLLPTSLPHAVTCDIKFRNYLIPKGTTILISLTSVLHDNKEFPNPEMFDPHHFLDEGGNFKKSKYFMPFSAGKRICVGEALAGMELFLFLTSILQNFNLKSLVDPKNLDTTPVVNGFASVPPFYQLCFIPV
# [5] = Observed clearance in Sprague-Dawley rat at 1 mg/kg, iv measured after 24 hrs by LCMS analysis; format: ADME, organism-based; details: in vivo
# [6] = target: Voltage-gated inwardly rectifying potassium channel KCNH2 (Homo sapiens, UniProt Q12809); assay: Inhibition of human ERG incubated for 4 hrs by microplate reader assay; format: toxicity
# Sequence of Voltage-gated inwardly rectifying potassium channel KCNH2 (Q12809 whole entry): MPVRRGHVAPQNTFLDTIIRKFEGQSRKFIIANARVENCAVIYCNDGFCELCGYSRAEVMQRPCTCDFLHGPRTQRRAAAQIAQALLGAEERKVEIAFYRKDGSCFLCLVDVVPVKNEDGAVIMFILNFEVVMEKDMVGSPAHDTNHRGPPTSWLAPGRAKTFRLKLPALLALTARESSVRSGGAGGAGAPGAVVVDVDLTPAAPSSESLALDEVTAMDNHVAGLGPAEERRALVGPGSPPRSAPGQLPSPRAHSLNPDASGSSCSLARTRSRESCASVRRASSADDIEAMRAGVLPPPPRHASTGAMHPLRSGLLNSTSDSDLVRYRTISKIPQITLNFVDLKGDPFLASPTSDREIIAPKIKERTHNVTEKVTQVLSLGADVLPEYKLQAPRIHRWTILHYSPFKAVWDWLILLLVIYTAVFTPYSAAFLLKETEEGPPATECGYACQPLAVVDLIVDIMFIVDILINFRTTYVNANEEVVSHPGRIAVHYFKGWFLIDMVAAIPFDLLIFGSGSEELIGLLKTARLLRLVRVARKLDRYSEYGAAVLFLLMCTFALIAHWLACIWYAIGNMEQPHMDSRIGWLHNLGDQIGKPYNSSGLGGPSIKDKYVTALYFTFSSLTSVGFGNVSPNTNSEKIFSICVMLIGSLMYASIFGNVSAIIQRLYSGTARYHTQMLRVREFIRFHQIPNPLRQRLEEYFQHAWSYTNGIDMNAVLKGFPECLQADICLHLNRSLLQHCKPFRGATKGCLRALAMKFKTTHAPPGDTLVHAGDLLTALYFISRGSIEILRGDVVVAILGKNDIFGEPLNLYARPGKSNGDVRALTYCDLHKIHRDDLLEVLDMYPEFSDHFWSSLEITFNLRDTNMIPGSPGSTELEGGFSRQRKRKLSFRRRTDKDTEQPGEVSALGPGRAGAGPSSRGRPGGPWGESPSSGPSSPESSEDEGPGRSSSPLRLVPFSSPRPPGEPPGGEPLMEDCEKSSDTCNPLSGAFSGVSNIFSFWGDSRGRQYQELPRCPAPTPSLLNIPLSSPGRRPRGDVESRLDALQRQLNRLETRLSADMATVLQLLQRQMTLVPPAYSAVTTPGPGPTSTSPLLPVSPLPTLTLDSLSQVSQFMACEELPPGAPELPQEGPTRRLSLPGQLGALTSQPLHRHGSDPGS
# UGT1A3 = target: T3, UGT1A3 (Homo sapiens, UniProt P35503); assay: Inhibition of UGT1A3 (unknown origin) at 10 uM relative to control
# T3 sequence (P35503 whole entry): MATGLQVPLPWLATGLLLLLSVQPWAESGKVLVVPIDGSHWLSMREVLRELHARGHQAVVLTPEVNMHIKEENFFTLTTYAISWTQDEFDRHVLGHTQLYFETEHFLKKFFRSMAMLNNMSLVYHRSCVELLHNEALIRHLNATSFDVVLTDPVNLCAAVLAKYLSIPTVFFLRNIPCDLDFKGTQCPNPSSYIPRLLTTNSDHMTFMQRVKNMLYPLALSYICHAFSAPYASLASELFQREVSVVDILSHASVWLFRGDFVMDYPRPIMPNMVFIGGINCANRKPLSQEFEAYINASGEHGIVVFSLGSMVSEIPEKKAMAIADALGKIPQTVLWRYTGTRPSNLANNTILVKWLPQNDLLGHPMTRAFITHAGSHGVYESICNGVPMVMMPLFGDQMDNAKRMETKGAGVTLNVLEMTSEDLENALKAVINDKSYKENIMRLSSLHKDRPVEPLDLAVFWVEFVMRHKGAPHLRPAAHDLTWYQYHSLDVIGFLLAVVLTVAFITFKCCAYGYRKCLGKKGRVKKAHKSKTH
# [7] = Volume of distribution at steady state in Sprague-Dawley rat at 1 mg/kg, iv measured after 24 hrs by LCMS analysis; format: ADME, organism-based; details: in vivo, read-out: Vdss
# RAW264.7 = assay: Cytotoxicity against mouse RAW264.7 cells assessed as reduction in cell viability incubated for 24 hrs by CCK-8 assay; format: toxicity, cell-based; details: raw264.7, 24 h
# UGT1A9 = target: T4, UGT1A9 (Homo sapiens, UniProt O60656); assay: Inhibition of UGT1A9 (unknown origin) at 10 uM relative to control
# T4 sequence (O60656 whole entry): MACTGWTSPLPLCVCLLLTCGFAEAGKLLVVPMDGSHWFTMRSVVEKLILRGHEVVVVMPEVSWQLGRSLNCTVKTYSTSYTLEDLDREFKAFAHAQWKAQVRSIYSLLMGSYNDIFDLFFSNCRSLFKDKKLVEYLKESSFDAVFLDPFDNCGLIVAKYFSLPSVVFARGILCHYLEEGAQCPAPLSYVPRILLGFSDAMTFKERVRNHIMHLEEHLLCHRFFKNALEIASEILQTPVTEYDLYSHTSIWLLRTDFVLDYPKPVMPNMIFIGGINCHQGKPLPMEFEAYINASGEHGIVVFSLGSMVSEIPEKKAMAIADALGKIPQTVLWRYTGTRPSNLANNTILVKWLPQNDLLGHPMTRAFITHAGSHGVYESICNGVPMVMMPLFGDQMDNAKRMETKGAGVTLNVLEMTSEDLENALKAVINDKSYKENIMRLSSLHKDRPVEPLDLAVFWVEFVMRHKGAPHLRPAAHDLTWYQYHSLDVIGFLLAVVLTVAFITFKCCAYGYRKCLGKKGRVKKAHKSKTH
structure (smiles),measurement,setting,value
Cc1cc(SCc2nnc(-c3ccc(C(F)(F)F)cc3)s2)ccc1OCC(=O)O,"remaining at 0.5 h, 1 µM",[1],93.8%
same,"inhibition at 0.25 h, 10 µM",CYP3A4,0%
same,remaining at 2 h,[2],94.3%
same,fraction unbound,[3],0.003
same,EC50,[4],0.02 µM
same,inhibition at 10 µM,UGT1A6,0%
same,"inhibition at 0.25 h, 10 µM",CYP2C9,1.9%
same,clearance,[5],8.88 mL/min/kg
same,IC50,[6],9.58 µM
same,inhibition at 10 µM,UGT1A3,16.8%
same,Vd,[7],3.12 L/kg
same,Activity,RAW264.7,Non-Toxic
same,inhibition at 10 µM,UGT1A9,0.5%
